Consider five compounds from publication PMC9963287 (Viruses, 2023).

Each structure is given as a SMILES string.

The target in one series is SARS-CoV-2 M^pro (Severe acute respiratory syndrome coronavirus 2, UniProt P0DTD1). As to the kind of experiment: In vitro FRET M^pro inhibition assay. The series is classed as biochemical. To be noted: 50 nM M^pro; for IC50: FRET assay, inhibitor 3.125-100 μM, read-out: IC50 against M^pro enzymatic activity; for inhibition at 50 µM: initial screen at 50 μM compound, read-out: inhibitory activity against M^pro.

The target of series [1] is T1, M^pro (Severe acute respiratory syndrome coronavirus 2, UniProt P0DTD1). Briefly: Bio-layer interferometry binding kinetics assay. Conditions: BLI, 1:1 binding model, 30 °C; for Kd: KD = koff/kon. Further details: species or system SARS-CoV-2.
On the set-up of series [2]: method as in earlier work. Conditions: in animals; cited from earlier work.
Series [3] deals with T1, M^pro. To be noted: at a concentration of 50 μM; cited from earlier work.

In the case of `O=C(CC[C@@H](C(=O)Nc1cccc([N+](=O)[O-])c1)n1cnc2ccccc2c1=O)Nc1cccc([N+](=O)[O-])c1` [G1], on SARS-CoV-2 M^pro, the IC50 is ~20 µM and the inhibition at 50 µM was > 50%. On M^pro [1], this compound registered a koff of 0.00325 s⁻¹, an on-rate (kon) of 125 M⁻¹ s⁻¹ and a Kd of 26 µM.

Take `Nc1ccc(OC(=O)CC[C@@H](C(=O)Oc2ccc(N)c([N+](=O)[O-])c2)n2cnc3ccccc3c2=O)cc1[N+](=O)[O-]` [G4]: on SARS-CoV-2 M^pro, the IC50 is ~20 µM and the inhibition at 50 µM was > 50%. Moreover, at M^pro [1], the koff was determined as 0.413 s⁻¹, the kon turned out to be 16200 M⁻¹ s⁻¹ and binding was put at a Kd of 25.5 µM.

Consider `CC(C)CC(NC(=O)OCc1ccccc1)C(=O)NC(CC1CCNC1=O)C(O)S(=O)(=O)O` (stereo not shown) [GC376], for which the side effects result in series [2] is given as “delayed adult teeth development”.

On to `COc1cccc(Nc2c(C(N)=O)cnc3c(C)cc(S(=O)(=O)c4cccc(C(=O)N(C)C)c4)cc23)c1` [GSK-256066], for which the “M^pro inhibitory activity” value at M^pro [3] is reported as “more than 30%”.

For the compound `CC(O)(CS(=O)(=O)c1ccc(F)cc1)C(=O)Nc1ccc(C#N)c(C(F)(F)F)c1` (stereo not shown) [bicalutamide], on M^pro [3], the “M^pro inhibitory activity” value is listed as “more than 30%”.
